Measured values taken from US11028075B2, “Therapeutic compounds and methods of use thereof” (GENENTECH, INC., priority 2018, dated 2021).

Columns and labels:
hNav1.7 [1] = target: T1, hNav1.7 (Homo sapiens (Human), UniProt Q15858); assay: Tritiated compound binding to membranes from cells heterologously expressing hNav1.7 and the β1 subunit (Nav1.7 LBA); conditions: competitive binding vs [3H]compound, membranes with hNav1.7 and β1 subunit; read-out: Nav1.7 LBA EVO IC50
Summary of the method: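 Membranes from cells expressing hNav1.7 with β1 were incubated at room temperature with a tritiated competitive Nav1.7 inhibitor plus test compound in 100 mM NaCl, 20 mM Tris pH 7.4, 0.01% BSA; nonspecific binding was set with 1 μM unlabeled compound. Incubation was 18 h with […] radioligand, or 3 h with […]. Bound ligand was filtered and counted, and IC50 came from a 4-parameter fit.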
Target sequence in this assay (Q15858 whole entry, looked up): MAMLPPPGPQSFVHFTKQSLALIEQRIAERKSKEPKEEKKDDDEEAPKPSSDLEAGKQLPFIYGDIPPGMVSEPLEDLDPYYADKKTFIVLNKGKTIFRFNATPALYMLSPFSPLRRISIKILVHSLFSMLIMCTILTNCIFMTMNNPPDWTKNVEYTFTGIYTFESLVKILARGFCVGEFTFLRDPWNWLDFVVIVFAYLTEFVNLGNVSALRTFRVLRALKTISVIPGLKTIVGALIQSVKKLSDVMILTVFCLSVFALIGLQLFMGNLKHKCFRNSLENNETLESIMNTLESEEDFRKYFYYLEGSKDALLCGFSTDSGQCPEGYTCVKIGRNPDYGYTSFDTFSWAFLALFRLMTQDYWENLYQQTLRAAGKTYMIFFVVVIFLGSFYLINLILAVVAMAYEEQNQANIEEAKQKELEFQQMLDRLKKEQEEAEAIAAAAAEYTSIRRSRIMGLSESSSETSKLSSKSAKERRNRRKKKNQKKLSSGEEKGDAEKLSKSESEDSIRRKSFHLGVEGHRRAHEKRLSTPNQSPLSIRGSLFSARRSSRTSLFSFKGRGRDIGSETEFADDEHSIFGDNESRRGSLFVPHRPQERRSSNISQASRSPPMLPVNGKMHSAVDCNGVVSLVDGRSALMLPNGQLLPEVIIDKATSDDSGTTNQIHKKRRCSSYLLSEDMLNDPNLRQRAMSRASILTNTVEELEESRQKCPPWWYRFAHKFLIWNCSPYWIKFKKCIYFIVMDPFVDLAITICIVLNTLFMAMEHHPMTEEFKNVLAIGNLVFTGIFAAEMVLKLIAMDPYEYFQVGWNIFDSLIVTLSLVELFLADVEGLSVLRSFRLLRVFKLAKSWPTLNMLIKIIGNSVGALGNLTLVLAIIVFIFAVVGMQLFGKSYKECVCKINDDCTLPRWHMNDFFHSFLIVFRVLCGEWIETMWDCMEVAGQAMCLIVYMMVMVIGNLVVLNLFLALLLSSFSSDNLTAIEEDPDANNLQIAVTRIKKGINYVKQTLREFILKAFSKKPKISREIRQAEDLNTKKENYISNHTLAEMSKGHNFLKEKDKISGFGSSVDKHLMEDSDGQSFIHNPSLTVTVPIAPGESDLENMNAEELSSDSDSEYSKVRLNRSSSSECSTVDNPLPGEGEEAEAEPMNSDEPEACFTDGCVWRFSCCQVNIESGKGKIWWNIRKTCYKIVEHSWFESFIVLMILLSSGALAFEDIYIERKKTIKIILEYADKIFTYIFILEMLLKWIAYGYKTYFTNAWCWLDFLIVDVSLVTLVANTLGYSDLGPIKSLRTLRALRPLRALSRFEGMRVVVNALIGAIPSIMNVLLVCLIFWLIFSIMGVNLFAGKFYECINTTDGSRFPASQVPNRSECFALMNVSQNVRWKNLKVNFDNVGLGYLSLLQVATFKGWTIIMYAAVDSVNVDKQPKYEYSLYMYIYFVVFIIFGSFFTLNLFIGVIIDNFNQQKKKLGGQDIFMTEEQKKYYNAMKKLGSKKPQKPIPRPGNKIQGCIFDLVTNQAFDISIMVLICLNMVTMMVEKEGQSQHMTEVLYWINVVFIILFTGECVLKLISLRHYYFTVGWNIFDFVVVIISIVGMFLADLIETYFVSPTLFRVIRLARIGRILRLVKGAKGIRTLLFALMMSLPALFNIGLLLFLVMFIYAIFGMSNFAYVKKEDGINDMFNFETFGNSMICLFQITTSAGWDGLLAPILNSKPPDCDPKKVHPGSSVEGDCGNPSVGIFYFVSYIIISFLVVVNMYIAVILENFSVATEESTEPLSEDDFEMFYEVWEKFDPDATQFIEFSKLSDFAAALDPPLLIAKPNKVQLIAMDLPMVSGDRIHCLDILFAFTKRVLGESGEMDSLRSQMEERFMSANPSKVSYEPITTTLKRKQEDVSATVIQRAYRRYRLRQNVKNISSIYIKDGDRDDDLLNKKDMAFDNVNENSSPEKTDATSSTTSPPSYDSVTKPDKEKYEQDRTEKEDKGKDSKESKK
Target sequence in this assay (Q07699 whole entry partner, looked up): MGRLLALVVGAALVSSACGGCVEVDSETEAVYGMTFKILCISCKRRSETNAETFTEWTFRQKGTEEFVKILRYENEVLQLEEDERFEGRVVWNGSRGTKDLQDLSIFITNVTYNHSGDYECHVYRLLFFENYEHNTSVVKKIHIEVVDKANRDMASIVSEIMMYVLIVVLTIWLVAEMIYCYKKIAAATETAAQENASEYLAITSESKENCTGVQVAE

hNav1.7 [2] = target: T1, hNav1.7; assay: Electrophysiological assay (EP), voltage clamp on Syncropatch 384PE, CHO cells stably expressing Nav1.7; assay type: cell-based; conditions: holding potential −50 mV, 7.5 min compound incubation, read-out: EP_SP hNav1.7 EVO IC50
Summary of the method: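 Whole-cell automated patch clamp was run on CHO cells stably expressing human Nav1.7 cDNA, with internal solution CsCl/EGTA pH 7.2, external solution 80 mM NaCl pH 7.4, and 0.1% Pluronic F-127. From a −50 mV holding potential: −10 mV for 10 ms, −150 mV for 20 ms, then −10 mV for 10 ms, where current was measured. Inhibition was taken after 7.5 min compound incubation, with TTX added for full block.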
Target sequence in this assay (Q15858 other isoform, or with tags, fused parts or gaps): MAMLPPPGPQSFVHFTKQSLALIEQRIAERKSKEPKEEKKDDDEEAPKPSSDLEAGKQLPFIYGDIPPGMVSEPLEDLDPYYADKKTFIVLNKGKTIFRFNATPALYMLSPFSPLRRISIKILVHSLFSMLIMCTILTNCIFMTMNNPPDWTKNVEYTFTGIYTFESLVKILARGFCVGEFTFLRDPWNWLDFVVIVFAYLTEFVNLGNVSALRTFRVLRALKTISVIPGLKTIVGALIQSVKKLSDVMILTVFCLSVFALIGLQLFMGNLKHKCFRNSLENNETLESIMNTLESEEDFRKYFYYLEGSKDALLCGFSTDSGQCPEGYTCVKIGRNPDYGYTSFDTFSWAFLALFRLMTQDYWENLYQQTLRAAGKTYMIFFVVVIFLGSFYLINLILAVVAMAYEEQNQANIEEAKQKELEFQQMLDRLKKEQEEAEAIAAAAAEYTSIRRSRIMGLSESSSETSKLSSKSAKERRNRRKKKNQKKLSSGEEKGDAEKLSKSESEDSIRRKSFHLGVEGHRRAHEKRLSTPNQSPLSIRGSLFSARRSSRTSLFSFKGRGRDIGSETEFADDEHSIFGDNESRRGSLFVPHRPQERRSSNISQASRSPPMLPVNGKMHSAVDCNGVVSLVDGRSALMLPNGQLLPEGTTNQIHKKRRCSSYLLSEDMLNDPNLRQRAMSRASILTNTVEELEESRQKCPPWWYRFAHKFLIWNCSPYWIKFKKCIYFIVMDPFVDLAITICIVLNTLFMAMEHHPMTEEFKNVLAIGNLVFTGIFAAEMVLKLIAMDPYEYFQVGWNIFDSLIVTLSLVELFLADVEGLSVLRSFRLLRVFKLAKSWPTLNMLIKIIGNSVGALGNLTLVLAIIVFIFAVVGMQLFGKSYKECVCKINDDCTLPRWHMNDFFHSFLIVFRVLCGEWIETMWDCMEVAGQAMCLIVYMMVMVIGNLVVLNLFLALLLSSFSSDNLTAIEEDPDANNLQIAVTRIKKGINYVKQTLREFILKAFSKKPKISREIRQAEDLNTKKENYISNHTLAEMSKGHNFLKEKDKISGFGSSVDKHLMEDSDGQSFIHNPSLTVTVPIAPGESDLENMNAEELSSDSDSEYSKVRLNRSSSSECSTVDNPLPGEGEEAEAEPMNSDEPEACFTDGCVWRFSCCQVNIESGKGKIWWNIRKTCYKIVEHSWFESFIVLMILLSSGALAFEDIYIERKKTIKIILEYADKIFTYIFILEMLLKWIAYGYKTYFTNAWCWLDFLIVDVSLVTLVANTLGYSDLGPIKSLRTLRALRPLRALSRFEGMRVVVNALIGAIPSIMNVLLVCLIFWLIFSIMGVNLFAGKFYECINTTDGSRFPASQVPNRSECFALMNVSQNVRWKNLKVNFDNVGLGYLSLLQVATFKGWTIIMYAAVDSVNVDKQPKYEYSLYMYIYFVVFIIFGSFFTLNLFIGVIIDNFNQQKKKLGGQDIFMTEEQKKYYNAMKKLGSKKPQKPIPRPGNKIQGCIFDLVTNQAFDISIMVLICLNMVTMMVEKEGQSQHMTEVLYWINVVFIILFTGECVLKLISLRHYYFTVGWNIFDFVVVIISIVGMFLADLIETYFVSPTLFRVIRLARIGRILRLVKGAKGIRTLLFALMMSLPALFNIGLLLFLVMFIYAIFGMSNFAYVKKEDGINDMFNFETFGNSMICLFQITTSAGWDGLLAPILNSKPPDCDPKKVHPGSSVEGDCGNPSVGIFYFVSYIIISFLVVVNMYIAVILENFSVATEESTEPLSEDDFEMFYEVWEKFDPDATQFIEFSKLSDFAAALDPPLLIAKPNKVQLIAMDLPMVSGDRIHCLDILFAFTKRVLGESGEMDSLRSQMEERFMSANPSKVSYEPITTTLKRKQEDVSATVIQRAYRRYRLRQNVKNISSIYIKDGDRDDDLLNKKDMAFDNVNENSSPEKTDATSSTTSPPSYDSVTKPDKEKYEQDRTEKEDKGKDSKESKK

IC50 (hNav1.7 [1]): 2.07 nM
IC50 (hNav1.7 [2]): 0.83 nM
SMILES: CN1CC(C(=O)N(C)[C@H]2C[C@@H](c3cccc(C(F)(F)F)c3)CC[C@@H]2Nc2cc(F)c(S(=O)(=O)Nc3ccncn3)cc2Cl)C1 [Example 39, N-((1S,2S,5S)-2-((2-Chloro-5-fluoro-4-(N-(pyrimidin-4-yl)sulfamoyl)phenyl)amino)-5-(3-(trifluoromethyl)phenyl)cyclohexyl)-N,1-dimethylazetidine-3-carboxamide]
